Assay results from patent publication US20090130229A1, “Antitumor uses of compound” (Cell Therapeutics, Inc., priority 2002, published 2009).
Entries after “also recorded” stand apart in the source; their conditions may differ.

Legend:
[1] = tested on: TT medullary thyroid carcinoma xenografts; experiment: Antitumor activity in nude mice harboring TT xenografts; type: in vivo; details: for TWI (tumor weight inhibition): 10 consecutive days
Protocol: FIG. 3. Antitumor activity of Cpd 1 in nude mice harboring TT medullary thyroid carcinoma xenografts. Drug treatment started 25 days after s.c. inoculum of the tumor cells. Cpd 1 was delivered per os at 50 or 100 mg/Kg, twice in a day (2qd), for 10 consecutive days (indicated by arrows). Control mice received the vehicle. […] TWI were 60% (P<0.005) and 80% (P<0.0005) for the 50 mg/Kg and 100 mg/Kg doses, respectively.
All experiments were carried out using female athymic nude CD-1 mice, 8-11-weeks old (Charles River, Calco, Italy). Mice were maintained in laminar flow rooms with constant temperature and humidity. Experimental protocols were approved by the Ethic Committee for Animal Experimentation of the Istituto Nazionale per lo Studio e la Cura dei Tumori (Milan, Italy), according to the United Kingdom Coordinating Committee on Cancer Research Guidelines (Workman P. et al., British Journal of Cancer, 77, 1, 1998).
The MTC cells TT (1.6×10^7 cells) were s.c. inoculated in mice as a cell suspension from in vitro cell culture. Each control or drug-treated group included 8-10 tumors. Tumor cells were injected on day 0, and tumor growth was followed by biweekly measurements of tumor diameters with a Vernier caliper. Tumor weight (TW) was calculated according to the formula: TW (mg)=tumor volume (mm^3)=d^2xD/2, where d and D are the shortest and the longest diameter, respectively. Drug treatment started when tumors were just measurable (mean TW about 50 mg), 25 days after the inoculum of tumor cells. Cpd1 was dissolved in 5% ethanol, 5% Cremophor EL, 90% saline (0.9% NaCl) and delivered per os twice in a day (2qd) by a daily schedule for 10 days. Control mice received the solvent solution.
Drug efficacy was assessed as percentage TW inhibition (TWI % in drug-treated versus control mice expressed as: TWI %=100−(mean TW treated/mean TW control×100). For statistical analysis, TW in control and treated mice were compared on the day of TWI % evaluation, by Student's t test (two-tailed). P values less than 0.05 were considered statistically significant.

Met = target: T1, Met (Homo sapiens, UniProt P08581); experiment: Met autophosphorylation and expression in TPC-1 cells (IP/Western blotting); type: cell-based
T1 construct: endogenous in cells; host or cells: TPC-1 (human papillary thyroid carcinoma)
T1 sequence (P08581 25-1390): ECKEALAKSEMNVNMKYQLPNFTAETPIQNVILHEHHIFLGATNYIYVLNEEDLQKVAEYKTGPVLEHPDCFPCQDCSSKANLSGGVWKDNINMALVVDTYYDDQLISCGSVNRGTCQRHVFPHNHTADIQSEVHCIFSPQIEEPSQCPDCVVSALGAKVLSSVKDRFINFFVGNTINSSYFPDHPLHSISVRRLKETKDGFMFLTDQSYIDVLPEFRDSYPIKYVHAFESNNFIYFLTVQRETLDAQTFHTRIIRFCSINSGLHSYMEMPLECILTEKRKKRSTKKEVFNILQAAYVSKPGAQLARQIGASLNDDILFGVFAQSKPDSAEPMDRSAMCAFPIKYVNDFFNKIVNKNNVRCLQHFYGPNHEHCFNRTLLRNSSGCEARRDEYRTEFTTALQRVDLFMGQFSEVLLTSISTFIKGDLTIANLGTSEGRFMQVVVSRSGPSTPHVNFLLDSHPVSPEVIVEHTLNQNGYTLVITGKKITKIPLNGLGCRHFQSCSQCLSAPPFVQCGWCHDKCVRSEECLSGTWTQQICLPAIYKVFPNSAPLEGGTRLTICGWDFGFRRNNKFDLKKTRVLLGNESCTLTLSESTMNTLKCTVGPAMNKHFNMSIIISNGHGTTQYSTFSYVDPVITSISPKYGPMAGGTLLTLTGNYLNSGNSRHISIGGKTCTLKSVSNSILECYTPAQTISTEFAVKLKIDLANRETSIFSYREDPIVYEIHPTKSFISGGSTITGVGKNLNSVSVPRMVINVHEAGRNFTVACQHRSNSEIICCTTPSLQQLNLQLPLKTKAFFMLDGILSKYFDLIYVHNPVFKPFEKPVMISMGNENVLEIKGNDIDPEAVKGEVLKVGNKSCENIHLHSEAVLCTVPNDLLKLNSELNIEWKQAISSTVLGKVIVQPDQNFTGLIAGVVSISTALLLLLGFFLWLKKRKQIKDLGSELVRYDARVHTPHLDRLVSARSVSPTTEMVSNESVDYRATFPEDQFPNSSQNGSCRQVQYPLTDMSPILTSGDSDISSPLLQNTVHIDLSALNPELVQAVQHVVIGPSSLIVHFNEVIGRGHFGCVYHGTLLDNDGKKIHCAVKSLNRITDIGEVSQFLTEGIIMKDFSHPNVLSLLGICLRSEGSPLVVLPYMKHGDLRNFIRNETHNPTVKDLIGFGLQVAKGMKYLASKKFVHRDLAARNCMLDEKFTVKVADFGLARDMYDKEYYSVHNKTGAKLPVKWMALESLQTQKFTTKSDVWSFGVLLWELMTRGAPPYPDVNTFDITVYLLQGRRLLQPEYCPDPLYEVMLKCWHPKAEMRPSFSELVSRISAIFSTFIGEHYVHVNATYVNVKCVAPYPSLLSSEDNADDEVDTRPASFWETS
Protocol: FIG. 4. Inhibition of Met autophosphorylation and expression in human papillary thyroid carcinoma cells (TPC-1) treated with Cpd1. A): TPC-1 cells were exposed to solvent (−) or the indicated concentrations of Cpd 1 for 72 h. Equal amounts of protein were used for immunoprecipitation (IP) with anti-Met antibody or for the preparation of whole cell lysates (WCL). Immunoprecipitated proteins and WCLs were separated by SDS-PAGE, transferred to nitrocellulose membranes, and subjected to Western blotting with anti-pTyr or anti-Met antibodies. B): Cells were treated as in A. Cell extracts were immunoprecipitated with anti-pTyr antibody and probed with anti-Met antibody. C): Cells were serum-starved for 24 h and exposed to solvent or Cpd1 (60 μM) during the last 18 h. Then they were left untreated (−) or stimulated with 20 ng/ml HGF (+), for 10 min. Cell lysates were immunoprecipitated with anti-Met and probed with anti-pTyr or anti-Met antibody. Drug treatment abolished the constitutive or HGF-induced Met tyrosine phosphorylation and induced a reduction of Met expression.
The following human medullary thyroid carcinoma (MTC) cell lines were used in this study. The TT cell line derived from a MEN2A-associated MTC characterized by expression of the RET oncogene carrying the mutation C634W. The MZ-CRC-1 cell line derived from MEN2B-associated MTC characterized by expression of the RET oncogene carrying the mutation M918T. TT cells were cultivated in Ham's F12 medium (BioWhittaker, Verviers, Belgium) supplemented with 15% fetal calf serum (FCS) (Life Technologies, Inc., Gaithersburg, Md.) whereas MZ-CRC-1 cells were grown in Dulbecco's modified Eagle's medium (DMEM) (BioWhittaker) supplemented with 10% FCS. The human papillary thyroid carcinoma cell line TPC-1 which was used as a model of Met overexpression, was routinely cultivated in DMEM with 10% FCS. […]
For immunoprecipitation experiments, cells were treated with Cpd1 or solvent for the indicated times. […] Protein concentration was determined by the BCA reagent (Pierce). […]

SMILES: COc1cc2c(cc1OC)/C(=C\c1ccc(O)cc1)C(=O)N2 [Cpd 1, (E)-1,3-dihydro-5,6-dimethoxy-3-[(4-hydroxyphenyl)methylene]-2H-indol-2-one]
- TWI (tumor weight inhibition) ([1]; 50 mg/Kg per os, 2qd, P<0.005): 60%
- TWI (tumor weight inhibition) ([1]; 100 mg/Kg per os, 2qd, P<0.0005): 80%
- Tumor growth ([1]; 50 or 100 mg/Kg per os, 2qd, 10 days): significant dose-dependent inhibition
- Tumor weight inhibition (TWI) reached ([1]; oral, daily dose of 50-100 mg/Kg (twice a day)): 80%
- Toxicity ([1]; oral, daily dose of 50-100 mg/Kg (twice a day), nude mice): without inducing toxicity
- Met expression (Met; TPC-1 cells): reduction
- HGF-induced Met tyrosine phosphorylation (Met; TPC-1 cells serum-starved, 60 μM for 18 h, 20 ng/ml HGF 10 min): abolished
- Constitutive Met tyrosine phosphorylation (autophosphorylation) (Met; TPC-1 cells, 72 h): dose-dependent inhibition; also recorded: abolished
